The text below walks through data of patent US12018021B2 (UCB Biopharma SRL, priority 2018, dated 2024).

Structures are written as SMILES. Where only a bound is given, the exact number is not on record here.

IgE-Tb / FcεRIα-Y131A-AF488, sequence (P01854 1-427 limits assumed, stated change not applied): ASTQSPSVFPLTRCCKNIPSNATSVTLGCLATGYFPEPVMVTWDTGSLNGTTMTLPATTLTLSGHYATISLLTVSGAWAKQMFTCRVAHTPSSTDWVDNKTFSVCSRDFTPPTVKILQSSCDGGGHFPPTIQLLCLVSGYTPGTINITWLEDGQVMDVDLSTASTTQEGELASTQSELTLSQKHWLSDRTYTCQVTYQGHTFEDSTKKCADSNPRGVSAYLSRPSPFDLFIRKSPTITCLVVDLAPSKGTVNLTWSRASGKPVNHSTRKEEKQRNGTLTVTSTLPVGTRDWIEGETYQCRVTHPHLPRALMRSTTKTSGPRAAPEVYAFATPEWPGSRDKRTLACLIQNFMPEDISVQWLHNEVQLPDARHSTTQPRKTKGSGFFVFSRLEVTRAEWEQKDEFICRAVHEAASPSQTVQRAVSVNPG

This experiment concerns the target IgE-Tb / FcεRIα-Y131A-AF488 (Homo sapiens, UniProt P01854). In words: IgE-Tb / FcεRIα-Y131A-AF488 FRET assay (protocol for examples 1 to 233). It counts as binding. As to conditions: examples 1 to 233: 5 nM IgE-Tb, 25 nM FcεRIα-Y131A-AF488, incubated 2 hours at room temperature; read-out: Y131A FRET IC50 range. In short, it runs like this:
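TR-FRET displacement with 5 nM IgE-Tb and 25 nM FcεRIα-Y131A-AF488 (final), 10-point 3-fold compound dilutions from typically 10 μM top, 2% DMSO, 2 h at room temperature. Excitation 330 nm, 520/495 nm emission ratio; MIN set with 200 nM unlabelled FcεRIα. IC50 from four-parameter logistic fit of percent inhibition.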
Take `CCNc1nnc(CO)n1C1CCc2sc(NC(=O)C3CC3)c(C(=O)NCC3CC3)c2C1` (stereo not drawn) [Example 184, 2-(Cyclopropanecarbonylamino)-N-(cyclopropylmethyl)-5-[3-(ethylamino)-5-(hydroxymethyl)-1,2,4-triazol-4-yl]-4,5,6,7-tetrahydrobenzothiophene-3-carboxamide]: the IC50 – broadly, the concentration that inhibits the measured activity by half – was < 1 µM.

`Cc1cc(Nc2nncn2C2CCc3sc(NC(=O)C4CC4)c(C(=O)NC4CC(F)(F)C4)c3C2)n(C)n1` (stereo not drawn) [Example 185, 2-(cyclopropanecarbonylamino)-N-(3,3-difluorocyclobutyl)-5-[3-[(2,5-dimethylpyrazol-3-yl)amino]-1,2,4-triazol-4-yl]-4,5,6,7-tetrahydrobenzothiophene-3-carboxamide]: the IC50 was < 1 µM.

`Nc1nccn1[C@H]1CCc2sc(NC(=O)C3CC3)c(C(=O)NCC3CC3)c2C1` [Example 186, (5S)-5-(2-Aminoimidazol-1-yl)-2-(cyclopropanecarbonylamino)-N-(cyclopropylmethyl)-4,5,6,7-tetrahydrobenzothiophene-3-carboxamide]: the IC50 was < 1 µM.

Take `Nc1noc(=O)n1C1CCc2sc(NC(=O)C3CC3)c(C(=O)NCC3CC3)c2C1` (stereo not drawn) [Example 187, 5-(3-Amino-5-oxo-1,2,4-oxadiazol-4-yl)-2-(cyclopropanecarbonylamino)-N-(cyclopropylmethyl)-4,5,6,7-tetrahydrobenzothiophene-3-carboxamide]: the IC50 is < 1 µM.

Regarding `CCNc1nnc(C)n1C1CCc2sc(NC(=O)C3CC3)c(C(=O)NCC3CC3)c2C1` (stereo not drawn) [Example 188, 2-(Cyclopropanecarbonylamino)-N-(cyclopropylmethyl)-5-[3-(ethylamino)-5-methyl-1,2,4-triazol-4-yl]-4,5,6,7-tetrahydrobenzothiophene-3-carboxamide], the IC50 is < 1 µM.

As for `O=C(NCC1CC1)c1c(NC(=O)C2CC2)sc2c1CC(Nc1ncccn1)CC2` (stereo not drawn) [Example 191, 2-(Cyclopropanecarbonylamino)-N-(cyclopropylmethyl)-5-(pyrimidin-2-ylamino)-4,5,6,7-tetrahydrobenzothiophene-3-carboxamide], the IC50 is < 1 µM.

As for `O=C(NCC1CC1)c1c(NC(=O)C2CC2)sc2c1CC(Nc1nnco1)CC2` (stereo not drawn) [Example 192, 2-(Cyclopropanecarbonylamino)-N-(cyclopropylmethyl)-5-(1,3,4-oxadiazol-2-ylamino)-4,5,6,7-tetrahydrobenzothiophene-3-carboxamide], the IC50 was < 1 µM.

Take `Cc1cc(Nc2nncn2C2CCc3sc(NC(=O)C4CC4)c(C(=O)NC4CC(F)C4)c3C2)n(C)n1` (stereo not drawn) [Example 193, 2-(cyclopropanecarbonylamino)-5-[3-[(2,5-dimethylpyrazol-3-yl)amino]-1,2,4-triazol-4-yl]-N-(3-fluorocyclobutyl)-4,5,6,7-tetrahydrobenzothiophene-3-carboxamide]: the half-maximal inhibitory concentration (IC50) is < 1 µM.

Consider `Cc1ccc(N2C(=O)CN=C2NC2CCc3sc(NC(=O)C4CC4)c(C(=O)NCC4CC4)c3C2)cc1` (stereo not drawn) [Example 194, 2-(Cyclopropanecarbonylamino)-N-(cyclopropylmethyl)-5-[[5-oxo-1-(p-tolyl)-4H-imidazol-2-yl]amino]-4,5,6,7-tetrahydrobenzothiophene-3-carboxamide], for which the IC50 was 1 to 10 µM.

Consider `CCN(C)c1c(NC2CCc3sc(NC(=O)C4CC4)c(C(=O)NCC4CC4)c3C2)c(=O)c1=O` (stereo not drawn) [Example 195, 2-(Cyclopropanecarbonylamino)-N-(cyclopropylmethyl)-5-[[2-[ethyl(methyl)amino]-3,4-dioxo-cyclobuten-1-yl]amino]-4,5,6,7-tetrahydrobenzothiophene-3-carboxamide], for which the IC50 is < 1 µM.

On to `CS(=N)(=O)NC1CCc2sc(NC(=O)C3CC3)c(C(=O)NCC3CC3)c2C1` (stereo not drawn) [Example 196, 2-(Cyclopropanecarbonylamino)-N-(cyclopropylmethyl)-5-[(methylsulfonimidoyl)amino]-4,5,6,7-tetrahydrobenzothiophene-3-carboxamide], for which the IC50 lay within 1 to 10 µM.

`CC(=NC#N)NC1CCc2sc(NC(=O)C3CC3)c(C(=O)NCC3CC3)c2C1` (stereo not drawn) [Example 197, 5-[[N-Cyano-C-methyl-carbonimidoyl]amino]-2-(cyclopropanecarbonylamino)-N-(cyclopropylmethyl)-4,5,6,7-tetrahydrobenzothiophene-3-carboxamide]: the IC50 was < 1 µM.

With `O=C(NCC1CC1)c1c(NC(=O)C2CC2)sc2c1CC(n1cnnn1)CC2` (stereo not drawn) [Example 198, 2-(Cyclopropanecarbonylamino)-N-(cyclopropylmethyl)-5-(tetrazol-1-yl)-4,5,6,7-tetrahydrobenzothiophene-3-carboxamide], the half-maximal inhibitory concentration (IC50) is < 1 µM.

Regarding `Cc1cc(Nc2nncn2C2CCc3sc(NC(=O)C4CC4)c(C(=O)NCC(C)(C)F)c3C2)n(C)n1` (stereo not drawn) [Example 200, 2-(cyclopropanecarbonylamino)-5-[3-[(2,5-dimethylpyrazol-3-yl)amino]-1,2,4-triazol-4-yl]-N-(2-fluoro-2-methyl-propyl)-4,5,6,7-tetrahydrobenzothiophene-3-carboxamide], the IC50 is < 1 µM.

Turning to `O=C(NCC1CC1)c1c(NC(=O)C2CC2)sc2c1CC(N1CCOCC1)CC2` (stereo not drawn) [Example 201, 2-(Cyclopropanecarbonylamino)-N-(cyclopropylmethyl)-5-morpholino-4,5,6,7-tetrahydrobenzothiophene-3-carboxamide], the IC50 was 1 to 10 µM.

For `CCNc1nnc(C(F)(F)F)n1C1CCc2sc(NC(=O)C3CC3)c(C(=O)NCC3CC3)c2C1` (stereo not drawn) [Example 202, 2-(Cyclopropanecarbonylamino)-N-(cyclopropylmethyl)-5-[3-(ethylamino)-5-(trifluoromethyl)-1,2,4-triazol-4-yl]-4,5,6,7-tetrahydrobenzothiophene-3-carboxamide], the IC50 fell in the range of 1 to 10 µM.

`O=C(NCC1CC1)c1c(NC(=O)C2CC2)sc2c1CC(Nc1nc(=O)cc[nH]1)CC2` (stereo not drawn) [Example 203, 2-(Cyclopropanecarbonylamino)-N-(cyclopropylmethyl)-5-[(4-oxo-1H-pyrimidin-2-yl)amino]-4,5,6,7-tetrahydrobenzothiophene-3-carboxamide]: the IC50 was < 1 µM.

`CC(C)NS(=O)(=O)NC1CCc2sc(NC(=O)C3CC3)c(C(=O)NCC3CC3)c2C1` (stereo not drawn) [Example 204, 2-(Cyclopropanecarbonylamino)-N-(cyclopropylmethyl)-5-(isopropylsulfamoylamino)-4,5,6,7-tetrahydrobenzothiophene-3-carboxamide]: the IC50 fell in the range of 1 to 10 µM.

Turning to `N#CN=C(NC1CCc2sc(NC(=O)C3CC3)c(C(=O)NCC3CC3)c2C1)NN1CCOCC1` (stereo not drawn) [Example 205, 5-[[N′-Cyano-N-morpholino-carbamimidoyl]amino]-2-(cyclopropanecarbonylamino)-N-(cyclopropylmethyl)-4,5,6,7-tetrahydrobenzothiophene-3-carboxamide], the IC50 was 1 to 10 µM.

Take `CC(=O)NC1CCc2sc(NC(=O)C3CC3)c(C(=O)NCC3CC3)c2C1` (stereo not drawn) [Example 206, 5-Acetamido-2-(cyclopropanecarbonylamino)-N-(cyclopropylmethyl)-4,5,6,7-tetrahydrobenzothiophene-3-carboxamide]: the half-maximal inhibitory concentration (IC50) was in the range of 1 to 10 µM.

As for `CS(=O)(=O)NC1CCc2sc(NC(=O)C3CC3)c(C(=O)NCC3CC3)c2C1` (stereo not drawn) [Example 207, 2-(Cyclopropanecarbonylamino)-N-(cyclopropylmethyl)-5-(methanesulfonamido)-4,5,6,7-tetrahydrobenzothiophene-3-carboxamide], the IC50 is < 1 µM.

As for `CONC(=NC#N)NC1CCc2sc(NC(=O)C3CC3)c(C(=O)NCC3CC3)c2C1` (stereo not drawn) [Example 208, 5-[[N′-Cyano-N-methoxy-carbamimidoyl]amino]-2-(cyclopropanecarbonylamino)-N-(cyclopropylmethyl)-4,5,6,7-tetrahydrobenzothiophene-3-carboxamide], the IC50 was < 1 µM.

For the compound `COc1ccc(NC(=O)NC2CCc3sc(NC(=O)C4CC4)c(C(=O)NCC(C)C)c3C2)cc1` (stereo not drawn) [Example 209, 2-(Cyclopropanecarbonylamino)-N-isobutyl-5-[(4-methoxyphenyl)carbamoylamino]-4,5,6,7-tetrahydrobenzothiophene-3-carboxamide], the IC50 is < 1 µM.

In the case of `O=C(NCC1CC1)c1c(NC(=O)C2CC2)sc2c1CC(Nc1nc(=O)cc(C(F)(F)F)[nH]1)CC2` (stereo not drawn) [Example 210, 2-(Cyclopropanecarbonylamino)-N-(cyclopropylmethyl)-5-[[4-oxo-6-(trifluoromethyl)-1H-pyrimidin-2-yl]amino]-4,5,6,7-tetrahydrobenzothiophene-3-carboxamide], the IC50 is < 1 µM.

On to `CC1CCN(C(=O)c2c(NC(=O)C3CC3)sc3c2CC(NS(C)(=O)=O)CC3)C1` (stereo not drawn) [Example 211, N-[5-(Methanesulfonamido)-3-(3-methylpyrrolidine-1-carbonyl)-4,5,6,7-tetrahydrobenzothiophen-2-yl]cyclopropanecarboxamide], for which the IC50 was 1 to 10 µM.

On to `CCCNC(=O)c1c(NC(=O)C2CC2)sc2c1CC(NC(=O)Nc1ccc(OC(F)(F)F)cc1)CC2` (stereo not drawn) [Example 212, 2-(Cyclopropanecarbonylamino)-N-propyl-5-[[4-(trifluoromethoxy)phenyl]carbamoylamino]-4,5,6,7-tetrahydrobenzothiophene-3-carboxamide], for which the IC50 is < 1 µM.

For `CC(C)C(=O)Nc1nncn1[C@H]1CCc2sc(NC(=O)C3CC3)c(C(=O)NCC3CC3)c2C1` [Example 213, (5S)-2-(cyclopropanecarbonylamino)-N-(cyclopropylmethyl)-5-[3-(2-methylpropanoylamino)-1,2,4-triazol-4-yl]-4,5,6,7-tetrahydrobenzothiophene-3-carboxamide], the IC50 was < 1 µM.
